From patent US8728777B2, “High performance metabolic bacteria” (Deinove, priority 2009, dated 2014)

Key:
[1] = test system: Deinococcus strain M13-1A; conditions: ethanol added at exponential phase, 2 hours incubation, minimum concentration with loss of one log in relation to the control
Description: (§1) This method enables evaluation of the micro-organism sensitivity to ethanol. The test is carried out at 45° C. (Thermophilic strains). Ethanol bactericidy is determined with ethanol added at: • T0, • exponential phase, • stationary phase.
(§2) Ethanol Bactericidy at Exponential and Stationary Phases Test:
(§3) From a pre-culture in stationary phase in an enriched culture medium, for each ethanol content to be tested, 5 mL of Complex medium Glucose is seeded at 1% v/v.
(§4) Complex Medium Glucose contains: peptone 2 g/L, yeast extract 5 g/L and glucose 10 g/Lin osmosed water: solution sterilized by autoclaving (15 minutes at 120° C.). To this solution are added the following solutions: MOPS buffer solution (10×) pH7 [acid MOPS 400 mM, NH4Cl 200 mM, NaOH 100 mM, KOH 100 mM, CaCl2 5 μM, Na2SO4 2.76 mM, MgCl2 5.28 mM]; micronutrients (10000×) [[…] 300 mM, H3BO3 4 mM, CoCl2 0.3 mM, CuSO4 0.1 mM, MnCl2 2.5 mM, ZnSO4 0.1 mM]; FeCl3(100×) 2 mM in C6H5Na3O7 20 mM; K2HPO4 1 g/L: solutions sterilized by filtration (0.2 μm).
(§5) A follow-up of growth is carried out using the control culture (no ethanol add neither at exponential phase nor at stationary phase). OD is read at 600 nm using a spectrophotometer (UV Light XS5, SECOMAM).
(§6) Once the exponential growth phase (optical density of 0.5 at 600 nm), or once the stationary phase (plateau), is reached, the solvent is added. The content tested is 0 to 20%. Then, cultures are incubated during 2 hours.
(§7) At the end of the incubation period and for each ethanol content tested, a count is taken to assess the influence of the ethanol on the strain.
(§8) Count: At the end of incubation, and for each concentration in solvent, 200 μL of culture are transferred onto another microplate and are diluted in cascade (dilutions at 1/10 over 9 wells). The dilution culture medium is an enriched medium.

[2] = test system: Deinococcus strain MC2-2A; conditions: 2 hours incubation, minimum concentration with loss of one log in relation to the control
Description: as §1, §2, §3, §4, §5, §6, §7, §8

[3] = test system: Deinococcus strain M13-1A; conditions: ethanol added at T0, 45° C., aerobiosis, Complex medium Glucose, minimum concentration with total growth inhibition
Description: as §1
(§9) For ethanol bactericidy at T0, ethanol percentages between 0 to 10% are tested.
(§10) From a pre-culture in stationary phase in an enriched culture medium, for each ethanol content to be tested, 200 μl of Complex medium Glucose is seeded at 1% v/v.
as §4
(§11) The test is performed in 96 wells microplates in aerobiosis. Ethanol evaporation is avoided using a sterile impermeable film.
(§12) The reading of the result is done by naked eye.

[4] = test system: Deinococcus strain MC2-2A; conditions: ethanol added at T0, 45° C., aerobiosis, Complex medium Glucose, minimum concentration with total growth inhibition
Description: as §1, §9, §10, §4, §11, §12

CCO [Ethanol, ethanol]
Ethanol Bactericidy Exponential phase [1]: 5% | Ethanol Bactericidy Exponential phase ([2]; ethanol added at exponential phase): 15% | Ethanol Bactericidy Stationary phase ([2]; ethanol added at stationary phase): 15% | Ethanol Bactericidy T0 [3]: 2.5% | Ethanol Bactericidy T0 [4]: 5%
